Results on 37 molecules are retold here after PubChem BioAssay AID1552 (Sanford-Burnham Center for Chemical Genomics, 2009).

Calls of active or inactive are those of the source. How the calls were made is not given here.

For this assay, the target named is Ubiquitin-conjugating enzyme E2 N (Homo sapiens) (UniProt P61088). As to the kind of experiment: UBE2N binders by NMR, biophysical, purified protein (AID 1552). The conditions noted are these: NMR binding to purified UBE2N.
Sequence of Ubiquitin-conjugating enzyme E2 N (Homo sapiens) (P61088 whole entry, looked up): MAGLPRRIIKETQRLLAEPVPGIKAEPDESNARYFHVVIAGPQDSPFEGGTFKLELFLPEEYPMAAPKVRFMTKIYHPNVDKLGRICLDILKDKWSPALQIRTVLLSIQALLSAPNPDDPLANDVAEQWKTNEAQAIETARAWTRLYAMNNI

As to `CC(C)Nc1ncnc2c1nnn2C`, the Kd is > 4 mM (inactive).
Then `Cc1cc2c(N)cccc2nn1`, with > 4 mM (inactive).
Then `O=S1(=O)CCC(NC(=S)Nc2ccccn2)C1` (configuration not stated), with > 4 mM (inactive).
The value for `O=C(O)C1CN2CCC1CC2` (configuration not stated) was > 4 mM (inactive); that for `CC(=O)NC(=S)Nc1ccccc1C` was > 4 mM (inactive).
Consider `C/C=C/C(=O)Nc1ccc(NC(C)=O)cc1`, for which the Kd is > 4 mM (inactive).
Then `NC[C@H]1O[C@H](O[C@H]2[C@H](O)[C@@H](O[C@H]3O[C@H](CO)[C@@H](O)[C@H](N)[C@H]3O)[C@H](N)C[C@@H]2N)[C@H](N)[C@@H](O)[C@@H]1O`, with > 4 mM (inactive); and `Cc1nc(-c2ccc(NS(C)(=O)=O)cc2)cs1`, with > 4 mM (inactive); and `Cc1onc(-c2ccccc2)c1C(=O)Nc1ccncc1`, with > 4 mM (inactive).
Turning to `NC(=O)CCS(=O)(=O)CCN1CCOCC1`, the Kd was > 4 mM (inactive).
In the case of `COc1ccc(C)cc1S(=O)(=O)N1CCCCC1`, the Kd is > 4 mM (inactive).
For the molecule `CS(=O)(=O)N1CCN(C(=O)c2ccccc2)CC1`, the Kd was > 4 mM (inactive).
The value for `COc1cc2c(c(OC)c1OC)-c1ccc(OC)c(=O)cc1[C@@H](NC(C)=O)CC2` was > 4 mM (inactive).
As for `COc1ccc2cc1Oc1ccc(cc1)C[C@H]1c3c(cc4c(c3Oc3cc5c(cc3OC)CCN(C)[C@@H]5C2)OCO4)CCN1C`, the Kd is > 4 mM (inactive).
Then `Cc1ccc(N2NC(=O)CC2=O)cc1C`, with > 4 mM (inactive).
In the case of `O=c1/c(=C/c2cccs2)sc2ncnn12`, the Kd was > 4 mM (inactive).
`CC1=C2C(=CO[C@H](C)[C@H]2C)C(=O)C(C(=O)O)=C1O`: the Kd was > 4 mM (inactive).
On to `CC(=O)O[C@@H]1CC2C(C)(C)[C@@H](O)CC[C@]2(C)C2CC[C@@]3(C)[C@H](c4ccoc4)OC(=O)[C@H]4O[C@]43[C@@]21C` (some centres not stated), for which the Kd was > 4 mM (inactive).
The value for `Cc1cc(C(=O)N2CCN(S(C)(=O)=O)CC2)cs1` was > 4 mM (inactive); that for `CCC1(CC)C(=O)NC(=O)N=C1N` was > 4 mM (inactive); that for `O=c1ccc2cc(O[C@@H]3O[C@H](CO)[C@@H](O)[C@H](O)[C@H]3O)c(O)cc2o1` was > 4 mM (inactive).
As to `CC12OC(=O)CC3C(C)(C)[C@H](O)C=C[C@]3(C)C1CC[C@]1(C)C2=CC(=O)O[C@H]1c1ccoc1` (some centres not stated), the Kd was > 4 mM (inactive).
Then `O=c1[nH]c(=S)c2c(n1-c1ccccc1)CCC2`, with > 4 mM (inactive).
Then `Cn1c(=O)c2c(n(C)c1=O)=NC1(CCCCC1)N=2`, with > 4 mM (inactive); and `NC1=NC(=O)CC(C(=O)Nc2ccccc2)S1` (configuration not stated), with > 4 mM (inactive).
Then `O=C(Nc1ccon1)c1ccccc1Cl`, with > 4 mM (inactive).
In the case of `Oc1ccccc1N=Cc1cccnc1`, the Kd is > 4 mM (inactive).
Regarding `N#CCSc1nc2ccccc2c(=O)n1-c1ccccc1`, the Kd is > 4 mM (inactive).
For `Oc1ccc(C(=S)N2CCOCC2)cc1`, the Kd is > 4 mM (inactive).
Then `Cc1ccc(C(=O)CS(C)(=O)=O)cc1`, with > 4 mM (inactive).
With `COc1ccc(-c2ccc(OC)cc2C(=O)O)cc1`, the Kd is > 4 mM (inactive).
On to `CC(=O)O[C@@H]1CC2C(C)(C)C(=O)[C@@H]3O[C@@H]3[C@]2(C)C2CC[C@]3(C)C(=CC(=O)O[C@H]3c3ccoc3)[C@@]21C` (some centres not stated), for which the Kd was > 4 mM (inactive).
The value for `CC(=O)Nc1sc(C)c(C)c1C(N)=O` was > 4 mM (inactive); that for `N#CCCn1c(=O)oc2ccccc21` was > 4 mM (inactive).
Regarding `COc1c(O)cc2oc3cc(O)c(CC=C(C)C)c(O)c3c(=O)c2c1CC=C(C)C`, the Kd was > 4 mM (inactive).
Regarding `CC1(C)C=Cc2cc3ccc(=O)oc3cc2O1`, the Kd is > 4 mM (inactive).
For `N#Cc1cccc(Cn2nnc(-c3ccccc3)n2)c1`, the Kd is > 4 mM (inactive).
